Experimental findings from ChEMBL document CHEMBL1157171, “Structure-based virtual screening against SARS-3CL(pro) to identify novel non-peptidic hits” (Bioorg Med Chem, 2008) are described below.

Broadly, the inhibition is the relative decrease from the control value, in per cent. As usually defined, the IC50 is the concentration that inhibits the measured activity by half.

In assay [1] the target is Replicase polyprotein 1a (Severe acute respiratory syndrome-related coronavirus) (UniProt P0C6U8). In words: Inhibition of human SARS coronavirus 3C like protease at 10 uM.
Assay [2] concerns the target Replicase polyprotein 1a (Severe acute respiratory syndrome-related coronavirus, UniProt P0C6U8). In words: Inhibition of human SARS coronavirus 3C like protease.

Take `O=C(CSc1nc(C2CCCCC2)nc2ccccc12)NCc1ccco1`: in assay [1], the inhibition was determined as 30%. The compound further had a half-inhibitory concentration (IC50) in assay [2] of 18.2 µM.

The compound `Cc1cc2cc(CN(CCc3ccccc3C)C(=O)NCc3ccccc3)c(=O)[nH]c2cc1C` returned an inhibition in assay [1] of 40%. The compound also gave a half-maximal inhibitory concentration (IC50) in assay [2] of 17.2 µM.
